The results in this text go back to patent publication US6437184B1, “Oxime compounds, their use, and intermediates for their production” (Sumitomo Chemical Company, Limited, priority 1997, dated 2002).

Series [1] has as its system Plutella xylostella. Put plainly: Insecticidal test against Plutella xylostella. To be noted: 96 h, 50 ppm water dilution sprayed over potted cabbages, 25 ml per pot, third-instar larvae, after 4 days, read-out: mortality. Type of series: in vivo. The procedure:
To a water dilution (50 ppm) of a test compound formulation obtained according to Formulation Example 1 was added a spreading agent (New RINOU available from Nihon Noyaku K.K.) at a dilution ratio of 3000-fold. The dilution was sprayed over potted cabbages at the four to five leaf stage at a volume of 25 ml per pot. After the treated plants were air dried, ten third-instar larvae of Plutella xylostella were set free on each pot. After 4 days, the mortality was determined.

Series [2] has as its system Cydia pomonella. Put plainly: Insecticidal test against Cydia pomonella. The settings on record: 168 h, 100 ppm water dilution, 0.2 ml on surface of artificial diet, eggs just before hatching, after 7 days. Type of series: in vivo. Summed up: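 A 100 ppm aqueous dilution of formulated compound (0.2 ml) was spread onto 3 g artificial diet and air-dried. About 20 near-hatching Cydia pomonella eggs on wax paper were added, four replicates per treatment. Larval mortality was recorded after 7 days.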

Series [3] deals with Helicoverpa armigera. Put plainly: Insecticidal test against Helicoverpa armigera. Type of series: in vivo. The settings on record: 120 h, 100 ppm water dilution, cotton leaf fragment immersed 10 seconds, third-instar larvae, after 5 days. The procedure:
A cotton leaf fragment (diameter, 5 cm) was immersed for 10 seconds Lin a water dilution (100 ppm) of a test compound formulation obtained according to Formulation Example 1. This fragment was taken out from the dilution, air dried, and placed in a polyethylene cup having a diameter of 5.5 cm. One third-instar larva of Helicoverpa armigera was set free in each cup. Ten larvae were used for each treatment. After 5 days, the mortality of the larvae was determined.

Series [4] relates to Heliothis virescens. The series can be described thus: Insecticidal test against Heliothis virescens. To be noted: 168 h, 100 ppm water dilution, 0.2 ml on surface of artificial diet, second-instar larvae, after 7 days. Type of series: in vivo. The procedure:
A water dilution (100 ppm) of a test compound formulation obtained according to Formulation Example 1 was added dropwise at a volume of 0.2 ml and uniformly spread over the surface of an artificial diet having a weight of 3 g, which had been prepared in a 30 ml plastic cup. After air drying, one second-instar larva of Heliothis virescens was set free in each cup. Ten larvae were used for each treatment. After 7 days, the mortality of the larvae was determined.

Series [5] has as its system Tetranychus urticae. Put plainly: Acaricidal test against Tetranychus urticae. In kind it is in vivo. To be noted: 500 ppm water dilution, 15 ml sprayed over brush bean with female adults set free 6 days before; after 8 days. The procedure:
About twenty female adults of Tetranychus urticae were set free on brush bean (Phaseolus vulgaris) in the primary leaf stage, which had been potted in a plastic cup for 7 days after the seeding. After 6 days, a 200-fold water dilution (500 ppm) of a test compound formulation obtained according to Formulation Example 1 or 2 was sprayed at a volume of 15 ml over the plant. After 8 days, each compound was evaluated for acaricidal activity on the following criteria.
−: almost no damage and completely no surviving mites
±: slight damage and some few surviving mites
+: rather smaller damage and a rather fewer surviving mites than non-treatment case
++: same as non-treatment case

Bounds are passed on as bounds.

By melting point is commonly meant the temperature of the solid-liquid transition. The term mortality denotes the share of the test organisms that died.

Take `CC(=NOCCCCCOc1c(Cl)cc(OCC=C(Cl)Cl)cc1Cl)c1ccc(Cl)nc1` [(569), 6-chloro-3-pyridyl methyl ketone O-(5-(2,6-dichloro-4-(3,3-dichloro-2-propenyloxy)phenoxy)pentyl)oxime]: the melting point was 67.7 °C.

The molecule `ClC(Cl)=CCOc1cc(Cl)c(OCCOc2ccc(C=NOCC=C(Br)Br)cc2)c(Cl)c1` [(282), 4-(2-(2,6-dichloro-4-(3,3-dichloro-2-propenyloxy)phenoxy)-ethoxy)benzaldehyde O-(3,3-dibromo-2-propenyl)oxime] came in with a melting point of 90.8 °C.

Take `ClC(Cl)=CCON=Cc1ccc(COc2c(Cl)cc(OCC=C(Br)Br)cc2Cl)cc1` [(280), 4-(2,6-dichloro-4-(3,3-dibromo-2-propenyloxy)phenoxymethyl)benzaldehyde O-(3,3-dichloro-2-propenyl)oxime]: the melting point amounted to 88.2 °C.

`ClC(Cl)=CCON=CCOc1ccc(COc2c(Cl)cc(OCC=C(Cl)Cl)cc2Cl)cc1` [(360), 2-(4-(2,6-dichloro-4-(3,3-dichloro-2-propenyloxy)phenoxymethyl)phenoxy)acetaldehyde O-(3,3-dichloro-2-propenyl)oxime] gave a melting point of 87.9 °C.

Turning to `ClC(Cl)=CCON=Cc1ccc(COc2c(Cl)cc(OCC=C(Cl)Cl)cc2Cl)cc1` [(279), 4-(2,6-dichloro-4-(3,3-dichloro-2-propenyloxy)phenoxymethyl)benzaldehyde O-(3,3-dichloro-2-propenyl)oxime], the mortality at 50 µg/mL in series [1] is no less than 80%. Moreover, the mortality at 100 µg/mL in series [2] and in series [3] was no less than 80% throughout.

Turning to `CON=Cc1ccc(COc2c(Cl)cc(OCC=C(Cl)Cl)cc2Cl)cc1` [(311), 4-(2,6-dichloro-4-(3,3-dichloro-2-propenyloxy)phenoxymethyl)benzaldehyde O-methyloxime], the melting point came out at 95.9 °C.

Take `CCc1cc(OCC=C(Cl)Cl)cc(CC)c1OCCCCOCC=NOC(C)(C)C` [(11), 4-(2,6-diethyl-4-(3,3-dichloro-2-propenyloxy)phenoxy)butyloxyacetaldehyde O-tert-butyloxime]: the mortality at 100 µg/mL in series [4], in series [2] and in series [3] was no less than 80% throughout.

Regarding `CCON=C(C)c1ccc(OCCCCCOc2c(Cl)cc(OCC=C(Cl)Cl)cc2Cl)cc1` [(321), 4′-(5-(2,6-dichloro-4-(3,3-dichloro-2-propenyloxy)phenoxy)-pentyloxy)acetophenone O-ethyloxime], the melting point amounted to 56.1 °C.

For the molecule `CC(CC(C)(C)C)=NOCCCCCCOc1c(Cl)cc(OCC=C(Cl)Cl)cc1Cl` [(593), 4,4-dimethyl-2-pentanone O-(6-(2,6-dichloro-4-(3,3-dichloro-2-propenyloxy)phenoxy)hexyl)oxime], the acaricidal activity result in series [5] is listed as ““−” or “±””.

Consider `ClC(Cl)=CCOc1cc(Cl)c(OCCCON=Cc2ccccc2)c(Cl)c1` [(523), benzaldehyde O-(3-(2,6-dichloro-4-(3,3-dichloro-2-propenyloxy)phenoxy)propyl)oxime], for which the mortality at 100 µg/mL in series [4] was no less than 80%. In addition, the mortality at 50 µg/mL in series [1] is no less than 80%.

In turn, `CCON=C(C)COc1c(Cl)cc(OCC=C(Cl)Cl)cc1Cl` [(30), (2,6-dichloro-4-(3,3-dichloro-2-propenyloxy)phenoxy)acetone O-ethyloxime] showed a melting point of 65.4 °C.

As to `ClC(Cl)=CCOc1cc(Cl)c(OCCCCOCC=NOCc2ccccc2)c(Cl)c1` [(5), 4-(2,6-dichloro-4-(3,3-dichloro-2-propenyloxy)phenoxy)butyloxyacetaldehyde O-benzyloxime], the mortality at 100 µg/mL in series [4] was no less than 80%.

As to `CC(=NO)c1ccc(OCCOc2c(Cl)cc(OCC=C(Cl)Cl)cc2Cl)cc1` [(337), 4′-(2-(2,6-dichloro-4-(3,3-dichloro-2-propenyloxy)phenoxy)-ethoxy)acetophenone oxime], the melting point was determined as 121 °C.

`ClC(Cl)=CCOc1cc(Cl)c(OCc2ccc(C=NOCc3ccccc3)cc2)c(Cl)c1` [(313), 4-(2,6-dichloro-4-(3,3-dichloro-2-propenyloxy)phenoxymethyl)benzaldehyde O-benzyloxime] yielded a melting point of 70.3 °C.

Consider `CC(CC(C)(C)C)=NOCCCCCOc1c(Cl)cc(OCC=C(Cl)Cl)cc1Cl` [(592), 4,4-dimethyl-2-pentanone O-(5-(2,6-dichloro-4-(3,3-dichloro-2-propenyloxy)phenoxy)pentyl)oxime], for which the acaricidal activity result in series [5] was ““−” or “±””.

In turn, `O=[N+]([O-])c1ccc(ON=CCCCCOc2c(Cl)cc(OCC=C(Cl)Cl)cc2Cl)c([N+](=O)[O-])c1` registered a melting point of 65.2 °C.

The molecule `ClC(Cl)=CCOc1cc(Cl)c(OCCCCCOCC=NOCC(Cl)(Cl)Cl)c(Cl)c1` [(160), 5-(2,6-dichloro-4-(3,3-dichloro-2-propenyloxy)phenoxy)pentyloxyacetaldehyde O-(2,2,2-trichloroethyl)oxime] yielded a mortality at 100 µg/mL in series [4] of no less than 80%.

Molecule `CC(=NOCCCCCOc1c(Cl)cc(OCC=C(Cl)Cl)cc1Cl)C(C)(C)C` [(559), 3,3-dimethyl-2-butanone O-(5-(2,6-dichloro-4-(3,3-dichloro-2-propenyloxy)phenoxy)pentyl)oxime] had a mortality at 100 µg/mL in series [4] of no less than 80%.

`CCON=Cc1ccc(COc2c(Cl)cc(OCC=C(Cl)Cl)cc2Cl)cc1` [(326), 4-(2,6-dichloro-4-(3,3-dichloro-2-propenyloxy)phenoxymethyl)benzaldehyde O-ethyloxime]: the melting point worked out at 84.8 °C.

Consider `ClC(Cl)=CCON=CCCCCCOc1c(Cl)cc(OCC=C(Cl)Cl)cc1Cl` [(76), 6-(2,6-dichloro-4-(3,3-dichloro-2-propenyloxy)phenoxy)hexanal O-(3,3-dichloro-2-propenyl)oxime], for which the mortality at 100 µg/mL in series [4] and in series [2] was no less than 80% in each case. Moreover, the mortality at 50 µg/mL in series [1] was no less than 80%.

Consider `ClC(Cl)=CCOc1cc(Cl)c(OCCCCOCC=NOCC=C(Br)Br)c(Cl)c1` [(3), 4-(2,6-dichloro-4-(3,3-dichloro-2-propenyloxy)phenoxy)butyloxyacetaldehyde O-(3,3-dibromo-2-propenyl)oxime], for which the mortality at 100 µg/mL in series [4] was no less than 80%.

On to `N#Cc1ccc(C=NOCCCCOc2c(Cl)cc(OCC=C(Cl)Cl)cc2Cl)cc1` [(691), 4-cyanobenzaldehyde O-(4-(2,6-dichloro-4-(3,3-dichloro-2-propenyloxy)phenoxy)butyl)oxime], for which the melting point turned out to be 71.2 °C.

For `CC(COCCCCCOc1c(Cl)cc(OCC=C(Cl)Cl)cc1Cl)=NOC(=O)C(C)(C)C` [(178), 5-(2,6-dichloro-4-(3,3-dichloro-2-propenyloxy)phenoxy)pentyloxyacetone O-pivaloyloxime], the acaricidal activity result in series [5] was ““−” or “±””.

The molecule `ON=CCOCCCCOc1c(Cl)cc(OCC=C(Cl)Cl)cc1Cl` [(148), 4-(2,6-dichloro-4-(3,3-dichloro-2-propenyloxy)phenoxy)butyloxyacetaldehyde oxime] registered a melting point of 62.8 °C.

Take `CC(=NOCCCCCCOc1c(Cl)cc(OCC=C(Cl)Cl)cc1Cl)C(C)C` [(583), 3-methyl-2-butanone O-(6-(2,6-dichloro-4-(3,3-dichloro-2-propenyloxy)phenoxy)hexyl)oxime]: in series [5], the acaricidal activity entry is on record as ““−” or “±””.

In the case of `ON=Cc1ccc(OCCCCCOc2c(Cl)cc(OCC=C(Cl)Cl)cc2Cl)cc1` [(333), 4-(5-(2,6-dichloro-4-(3,3-dichloro-2-propenyloxy)phenoxy)pentyloxy)benzaldehyde oxime], the melting point is 90.1 °C.

In turn, `CC(=NOC(C)(C)C)c1ccc(OCCCCOc2c(Cl)cc(OCC=C(Cl)Cl)cc2Cl)cc1` [(298), 4′-(4-(2,6-dichloro-4-(3,3-dichloro-2-propenyloxy)phenoxy)butyloxy)acetophenone O-tert-butyloxime] returned a melting point of 56.4 °C.

Regarding `CCCON=C(C)c1ccc(COc2c(Cl)cc(OCC=C(Cl)Cl)cc2Cl)cc1` [(346), 4′-(2,6-dichloro-4-(3,3-dichloro-2-propenyloxy)phenoxymethyl)acetophenone O-propyloxime], the mortality at 100 µg/mL in series [4] is no less than 80%.
